From PubChem BioAssay AID256 (DTP/NCI, 2004)
Several values for one entry are separate records, joined by “and”; a condition that tells them apart may be missing. Equal values may be shown once. Inconclusive results and toxic doses are left out.

Test system: CD2F1 mice, L1210 leukemia ip, survival T/C
Experiment: NCI In Vivo Anticancer Drug Screen. Data for tumor model L1210 Leukemia (intraperitoneal) in CD2F1 (CDF1) mice
Conditions: higher = longer survival
Outline: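 Mice carrying a transplanted tumor received test compound or vehicle alone. The value is the measurement in the treated group divided by that in the vehicle-treated control group.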

[1] = endpoint: mean survival time, dose: 100.0 mg/kg/injection, schedule: Q01DX001 (ip), vehicle: saline
[2] = endpoint: mean survival time, dose: 100.0 mg/kg/injection, schedule: Q01DX001 (ip), vehicle: saline with Tween-80
[3] = endpoint: mean survival time, dose: 200.0 mg/kg/injection, schedule: Q01DX001 (ip), vehicle: saline with Tween-80
[4] = endpoint: mean survival time, dose: 400.0 mg/kg/injection, schedule: Q01DX001 (ip), vehicle: saline with Tween-80
[5] = endpoint: mean survival time, dose: 100.0 mg/kg/injection, schedule: Q04DX003 (ip), vehicle: saline with Tween-80
[6] = endpoint: mean survival time, dose: 200.0 mg/kg/injection, schedule: Q01DX009 (ip), vehicle: other
[7] = endpoint: mean survival time, dose: 100.0 mg/kg/injection, schedule: Q04DX003 (ip), vehicle: Klucel (hydroxypropylcellulose) (HPC)
[8] = endpoint: mean survival time, dose: 200.0 mg/kg/injection, schedule: Q04DX003 (ip), vehicle: Klucel (hydroxypropylcellulose) (HPC)
[9] = endpoint: mean survival time, dose: 400.0 mg/kg/injection, schedule: Q04DX003 (ip), vehicle: Klucel (hydroxypropylcellulose) (HPC)
[10] = endpoint: mean survival time, dose: 50.0 mg/kg/injection, schedule: Q01DX009 (ip), vehicle: saline with Tween-80
[11] = endpoint: mean survival time, dose: 100.0 mg/kg/injection, schedule: Q01DX009 (ip), vehicle: saline with Tween-80
[12] = endpoint: mean survival time, dose: 200.0 mg/kg/injection, schedule: Q01DX009 (ip), vehicle: saline with Tween-80

O=P(NC12CC3CC(CC(C3)C1)C2)(N1CC1)N1CC1
T/C (endpoint: mean survival time, dose: 4.8 mg/kg/injection, schedule: Q04DX003 (ip), vehicle: Klucel (hydroxypropylcellulose) (HPC)): 120 % of control
T/C (endpoint: mean survival time, dose: 9.6 mg/kg/injection, schedule: Q04DX003 (ip), vehicle: Klucel (hydroxypropylcellulose) (HPC)): 120 % of control
T/C (endpoint: mean survival time, dose: 30.0 mg/kg/injection, schedule: Q04DX003 (ip), vehicle: Klucel (hydroxypropylcellulose) (HPC)): 162 % of control

Cc1cc(N(C)C)c(C(C)C)cc1O (tested in a mixture with another compound)
T/C (endpoint: mean survival time, dose: 32.0 micrograms/kg/injection, schedule: Q04DX003 (ip), vehicle: saline): 104 % of control
T/C (endpoint: mean survival time, dose: 63.0 micrograms/kg/injection, schedule: Q01DX001 (ip), vehicle: saline): 112 % of control
T/C (endpoint: mean survival time, dose: 63.0 micrograms/kg/injection, schedule: Q04DX003 (ip), vehicle: saline): 98 % of control
T/C (endpoint: mean survival time, dose: 125.0 micrograms/kg/injection, schedule: Q01DX001 (ip), vehicle: saline): 112 % of control
T/C (endpoint: mean survival time, dose: 125.0 micrograms/kg/injection, schedule: Q04DX003 (ip), vehicle: saline): 101 % of control

CS(=O)(=O)OCC(=O)C(=O)COS(C)(=O)=O
T/C (endpoint: mean survival time, dose: 25.0 mg/kg/injection, schedule: Q01DX001 (ip), vehicle: saline): 91 % of control
T/C (endpoint: mean survival time, dose: 50.0 mg/kg/injection, schedule: Q01DX001 (ip), vehicle: saline): 94 % of control
T/C [1]: 96 % of control and 103 % of control

CCCCOC(=O)c1ccccc1C(=O)O.CCCCOC(=O)c1ccccc1C(=O)O.[Cu+2]
T/C (endpoint: mean survival time, dose: 6.25 mg/kg/injection, schedule: Q04DX003 (ip), vehicle: saline with Tween-80): 91 % of control
T/C (endpoint: mean survival time, dose: 12.5 mg/kg/injection, schedule: Q04DX003 (ip), vehicle: saline with Tween-80): 95 % of control
T/C (endpoint: mean survival time, dose: 25.0 mg/kg/injection, schedule: Q04DX003 (ip), vehicle: saline with Tween-80): 93 % of control

CC1(C)C(=O)OC(=O)C(C)(Br)C1(C)C (centres undefined)
T/C [2]: 104 % of control
T/C [3]: 96 % of control
T/C [4]: 101 % of control

N#CC1(O)CCCCC1
T/C (endpoint: mean survival time, dose: 2.5 mg/kg/injection, schedule: Q01DX009 (ip), vehicle: saline with Tween-80): 102 % of control
T/C (endpoint: mean survival time, dose: 5.0 mg/kg/injection, schedule: Q01DX009 (ip), vehicle: saline with Tween-80): 104 % of control
T/C (endpoint: mean survival time, dose: 5.0 mg/kg/injection, schedule: Q04DX003 (ip), vehicle: saline with Tween-80): 102 % of control
T/C (endpoint: mean survival time, dose: 10.0 mg/kg/injection, schedule: Q01DX009 (ip), vehicle: saline with Tween-80): 94 % of control
T/C (endpoint: mean survival time, dose: 10.0 mg/kg/injection, schedule: Q04DX003 (ip), vehicle: saline with Tween-80): 102 % of control

CC(C)CCCN
T/C [1]: 100 % of control
T/C (endpoint: mean survival time, dose: 200.0 mg/kg/injection, schedule: Q01DX001 (ip), vehicle: saline): 97 % of control
T/C (endpoint: mean survival time, dose: 400.0 mg/kg/injection, schedule: Q01DX001 (ip), vehicle: saline): 97 % of control

Nc1ccc(CCCCc2nc(N)nc(N)c2-c2ccc(Cl)c(Cl)c2)cc1
T/C [5]: 98 % of control
T/C (endpoint: mean survival time, dose: 200.0 mg/kg/injection, schedule: Q04DX003 (ip), vehicle: saline with Tween-80): 100 % of control
T/C (endpoint: mean survival time, dose: 400.0 mg/kg/injection, schedule: Q04DX003 (ip), vehicle: saline with Tween-80): 113 % of control

COC1=C(OC)C(=O)C(C/C=C(\C)CCCC(C)CCCC(C)CCCC(C)C)=C(C)C1=O (centres undefined)
T/C (endpoint: mean survival time, dose: 100.0 mg/kg/injection, schedule: Q01DX009 (ip), vehicle: other): 94 % of control
T/C [6]: 95 % of control
T/C (endpoint: mean survival time, dose: 400.0 mg/kg/injection, schedule: Q01DX009 (ip), vehicle: other): 94 % of control

CC(=O)OCC1OC(n2cc(F)c(=O)[nH]c2=O)CC1OC(C)=O (centres undefined)
T/C (endpoint: mean survival time, dose: 50.0 mg/kg/injection, schedule: Q01DX009 (ip), vehicle: other): 123 % of control
T/C (endpoint: mean survival time, dose: 100.0 mg/kg/injection, schedule: Q01DX001 (ip), vehicle: other): 93 % of control
T/C (endpoint: mean survival time, dose: 200.0 mg/kg/injection, schedule: Q01DX001 (ip), vehicle: other): 110 % of control
T/C [6]: 117 % of control
T/C (endpoint: mean survival time, dose: 400.0 mg/kg/injection, schedule: Q01DX001 (ip), vehicle: other): 102 % of control
T/C (endpoint: mean survival time, dose: 800.0 mg/kg/injection, schedule: Q01DX001 (ip), vehicle: other): 119 % of control

CC(C)C1CCC(C)C(C(O)(C(F)(F)F)C(F)(F)F)C1=O (centres undefined)
T/C [7]: 96 % of control
T/C [8]: 95 % of control
T/C [9]: 96 % of control

Cn1c(N)nc2nc[nH]c2c1=S
T/C (endpoint: mean survival time, dose: 16.0 mg/kg/injection, schedule: Q01DX008 (iv), vehicle: saline): 100 % of control
T/C (endpoint: mean survival time, dose: 32.0 mg/kg/injection, schedule: Q01DX008 (iv), vehicle: saline): 98 % of control
T/C (endpoint: mean survival time, dose: 64.0 mg/kg/injection, schedule: Q01DX008 (iv), vehicle: saline): 105 % of control

O=[N+]([O-])c1cc2ccccc2c(O)c1O
T/C (endpoint: mean survival time, dose: 25.0 mg/kg/injection, schedule: Q01DX009 (ip), vehicle: saline with Tween-80): 102 % of control
T/C [10]: 108 % of control
T/C [5]: 91 % of control

CC(C)(CO)C(O)C(=O)NC1CCCCC1 (centres undefined)
T/C [2]: 98 % of control
T/C [11]: 102 % of control
T/C [3]: 102 % of control
T/C [12]: 100 % of control
T/C [4]: 94 % of control
T/C (endpoint: mean survival time, dose: 400.0 mg/kg/injection, schedule: Q01DX009 (ip), vehicle: saline with Tween-80): 97 % of control

Cc1cccc(OCC(O)CN2CC2)c1 (centres undefined)
T/C (endpoint: median survival time, dose: 12.5 mg/kg/injection, schedule: Q01DX005 (ip), vehicle: saline with Tween-80): 97 % of control and 107 % of control
T/C (endpoint: median survival time, dose: 25.0 mg/kg/injection, schedule: Q01DX005 (ip), vehicle: saline with Tween-80): 115 % of control and 111 % of control
T/C (endpoint: median survival time, dose: 36.0 mg/kg/injection, schedule: Q01DX005 (ip), vehicle: saline with Tween-80): 104 % of control
T/C (endpoint: median survival time, dose: 50.0 mg/kg/injection, schedule: Q01DX005 (ip), vehicle: saline with Tween-80): 113 % of control and 108 % of control
T/C (endpoint: median survival time, dose: 60.0 mg/kg/injection, schedule: Q01DX005 (ip), vehicle: saline with Tween-80): 113 % of control
T/C (endpoint: median survival time, dose: 100.0 mg/kg/injection, schedule: Q01DX005 (ip), vehicle: saline with Tween-80): 106 % of control
T/C (endpoint: median survival time, dose: 166.66 mg/kg/injection, schedule: Q01DX005 (ip), vehicle: saline with Tween-80): 110 % of control

CCCCOc1ccc(/C=N\NC(=O)CNC(=O)Nc2ccc(F)cc2)cc1
T/C [10]: 92 % of control
T/C [11]: 88 % of control
T/C [12]: 88 % of control

CCCCNc1ncnc2c1cnn2C
T/C (endpoint: mean survival time, dose: 4.0 mg/kg/injection, schedule: Q01DX Z (ip), vehicle: saline): 97 % of control
T/C (endpoint: mean survival time, dose: 8.0 mg/kg/injection, schedule: Q01DX Z (ip), vehicle: saline): 96 % of control
T/C (endpoint: mean survival time, dose: 12.5 mg/kg/injection, schedule: Q01DX005 (ip), vehicle: saline with Tween-80): 94 % of control
T/C (endpoint: mean survival time, dose: 16.0 mg/kg/injection, schedule: Q01DX Z (ip), vehicle: saline): 100 % of control
T/C (endpoint: mean survival time, dose: 25.0 mg/kg/injection, schedule: Q01DX005 (ip), vehicle: saline with Tween-80): 100 % of control
T/C (endpoint: mean survival time, dose: 31.0 mg/kg/injection, schedule: Q01DX Z (ip), vehicle: saline): 103 % of control
T/C (endpoint: mean survival time, dose: 50.0 mg/kg/injection, schedule: Q01DX005 (ip), vehicle: saline with Tween-80): 104 % of control
T/C (endpoint: mean survival time, dose: 100.0 mg/kg/injection, schedule: Q01DX005 (ip), vehicle: saline with Tween-80): 98 % of control
T/C (endpoint: mean survival time, dose: 200.0 mg/kg/injection, schedule: Q01DX005 (ip), vehicle: saline with Tween-80): 100 % of control
T/C (endpoint: median survival time, dose: 31.3 mg/kg/injection, schedule: Q01DX009 (ip), vehicle: saline): 100 % of control
T/C (endpoint: median survival time, dose: 62.5 mg/kg/injection, schedule: Q01DX009 (ip), vehicle: saline): 100 % of control
T/C (endpoint: median survival time, dose: 125.0 mg/kg/injection, schedule: Q01DX009 (ip), vehicle: saline): 105 % of control

c1ccc(CCSCCSCCc2ccccn2)nc1
T/C (endpoint: mean survival time, dose: 50.0 mg/kg/injection, schedule: Q04DX002 (ip), vehicle: saline with Tween-80): 101 % of control
T/C (endpoint: mean survival time, dose: 100.0 mg/kg/injection, schedule: Q04DX002 (ip), vehicle: saline with Tween-80): 113 % of control
T/C (endpoint: mean survival time, dose: 200.0 mg/kg/injection, schedule: Q04DX002 (ip), vehicle: saline with Tween-80): 101 % of control
T/C (endpoint: mean survival time, dose: 400.0 mg/kg/injection, schedule: Q04DX002 (ip), vehicle: saline with Tween-80): 93 % of control

CCCOC(=O)NCCBr
T/C [10]: 101 % of control
T/C [11]: 96 % of control
T/C [12]: 93 % of control

O=C1/C(=C/c2ccc(Cl)c(Cl)c2)CCC/C1=C\c1ccc(Cl)c(Cl)c1
T/C [7]: 98 % of control
T/C [8]: 100 % of control
T/C [9]: 98 % of control
